Results published in ChEMBL document CHEMBL4270599, “Synthesis of a 3'-C-ethynyl-β-d-ribofuranose purine nucleoside library: Discovery of C7-deazapurine analogs as potent antiproliferative nucleosides” (Eur J Med Chem, 2018).

Key:
Format in all cases: functional
HCT-15 [1] = assay: Growth inhibition of human HCT15 cells assessed as cell growth at 10^-5 M incubated for 48 hrs by sulforhodamine B assay relative to control; settings: HCT-15, 48 h, read-out: Activity
ACHN = assay: Growth inhibition of human ACHN cells assessed as cell growth at 10^-4 M incubated for 48 hrs by sulforhodamine B assay relative to control; settings: read-out: Activity
BT-549 [2] = assay: Growth inhibition of human BT549 cells assessed as cell growth at 10^-7 M incubated for 48 hrs by sulforhodamine B assay relative to control; settings: BT-549, 48 h, read-out: Activity
PC-3 = assay: Cytotoxicity against human PC3 cells after 48 hrs by SRB assay; settings: PC-3, 48 h; for GI50: read-out: GI50; for TGI: read-out: TGI
NCI-H23 = assay: Growth inhibition of human NCI-H23 cells assessed as cell growth at 10^-6 M incubated for 48 hrs by sulforhodamine B assay relative to control; settings: NCI-H23, 48 h, read-out: Activity
HOP-62 = assay: Growth inhibition of human HOP62 cells assessed as cell growth at 10^-6 M incubated for 48 hrs by sulforhodamine B assay relative to control; settings: HOP-62, 48 h, read-out: Activity
HCT-15 [3] = assay: Growth inhibition of human HCT15 cells assessed as cell growth at 10^-7 M incubated for 48 hrs by sulforhodamine B assay relative to control; settings: HCT-15, 48 h, read-out: Activity
BT-549 [4] = assay: Growth inhibition of human BT549 cells assessed as cell growth at 10^-5 M incubated for 48 hrs by sulforhodamine B assay relative to control; settings: BT-549, 48 h, read-out: Activity
UACC-257 [5] = assay: Growth inhibition of human UACC257 cells assessed as cell growth at 10^-7 M incubated for 48 hrs by sulforhodamine B assay relative to control; settings: UACC-257, 48 h, read-out: Activity
OVCAR-4 = assay: Growth inhibition of human OVCAR4 cells assessed as cell growth at 10^-7 M incubated for 48 hrs by sulforhodamine B assay relative to control; settings: OVCAR-4, 48 h, read-out: Activity
SNB-19 = assay: Growth inhibition of human SNB19 cells assessed as cell growth at 10^-7 M incubated for 48 hrs by sulforhodamine B assay relative to control; settings: SNB-19, 48 h, read-out: Activity
HCT-15 [6] = assay: Cytotoxicity against human HCT15 cells after 48 hrs by SRB assay; settings: HCT-15, 48 h; for GI50: read-out: GI50
OVCAR-8 = assay: Growth inhibition of human OVCAR8 cells assessed as cell growth at 10^-7 M incubated for 48 hrs by sulforhodamine B assay relative to control; settings: OVCAR-8, 48 h, read-out: Activity
HCT-15 [7] = assay: Growth inhibition of human HCT15 cells assessed as cell growth at 10^-4 M incubated for 48 hrs by sulforhodamine B assay relative to control; settings: HCT-15, 48 h, read-out: Activity
TK-10 = assay: Growth inhibition of human TK10 cells assessed as cell growth at 10^-8 M incubated for 48 hrs by sulforhodamine B assay relative to control; settings: TK-10, 48 h, read-out: Activity
K562 = assay: Growth inhibition of human K562 cells assessed as cell growth at 10^-6 M incubated for 48 hrs by sulforhodamine B assay relative to control; settings: K562, 48 h, read-out: Activity
MDA-MB-231 = assay: Growth inhibition of human MDA-MB-231 cells assessed as cell growth at 10^-8 M incubated for 48 hrs by sulforhodamine B assay relative to control; settings: MDA-MB-231, 48 h, read-out: Activity
SF-295 = assay: Growth inhibition of human SF295 cells assessed as cell growth at 10^-6 M incubated for 48 hrs by sulforhodamine B assay relative to control; settings: SF-295, 48 h, read-out: Activity
KM12 = assay: Growth inhibition of human KM12 cells assessed as cell growth at 10^-4 M incubated for 48 hrs by sulforhodamine B assay relative to control; settings: KM12, 48 h, read-out: Activity
HCT-15 [8] = assay: Growth inhibition of human HCT15 cells assessed as cell growth at 10^-6 M incubated for 48 hrs by sulforhodamine B assay relative to control; settings: HCT-15, 48 h, read-out: Activity
RXF 393 = assay: Growth inhibition of human RXF393 cells assessed as cell growth at 10^-7 M incubated for 48 hrs by sulforhodamine B assay relative to control; settings: RXF 393, 48 h, read-out: Activity
SF-268 = assay: Growth inhibition of human SF268 cells assessed as cell growth at 10^-5 M incubated for 48 hrs by sulforhodamine B assay relative to control; settings: SF-268, 48 h, read-out: Activity
UACC-62 = assay: Growth inhibition of human UACC62 cells assessed as cell growth at 10^-8 M incubated for 48 hrs by sulforhodamine B assay relative to control; settings: UACC-62, 48 h, read-out: Activity
UACC-257 [9] = assay: Growth inhibition of human UACC257 cells assessed as cell growth at 10^-5 M incubated for 48 hrs by sulforhodamine B assay relative to control; settings: UACC-257, 48 h, read-out: Activity
U-251 = assay: Growth inhibition of human U251 cells assessed as cell growth at 10^-4 M incubated for 48 hrs by sulforhodamine B assay relative to control; settings: U-251, 48 h, read-out: Activity
Hs-578T [10] = assay: Cytotoxicity against human Hs 578T cells after 48 hrs by SRB assay; settings: for GI50: read-out: GI50; for TGI: read-out: TGI; for CC50: read-out: pLC50 (the source's name) (converted)
HT-29 = assay: Growth inhibition of human HT-29 cells assessed as cell growth at 10^-8 M incubated for 48 hrs by sulforhodamine B assay relative to control; settings: HT-29, 48 h, read-out: Activity
Hs-578T [11] = assay: Growth inhibition of human Hs 578T cells assessed as cell growth at 10^-7 M incubated for 48 hrs by sulforhodamine B assay relative to control; settings: read-out: Activity
CCRF-CEM = assay: Cytotoxicity against human CCRF-CEM cells after 48 hrs by SRB assay; settings: for GI50: read-out: GI50; for CC50: read-out: LC50 (the source's name)
786-0 = assay: Growth inhibition of human 786-0 cells assessed as cell growth at 10^-6 M incubated for 48 hrs by sulforhodamine B assay relative to control; settings: 786-0, 48 h, read-out: Activity
[12] = read-out: pLC50 (the source's name) (converted)
[13] = read-out: LC50 (the source's name)

| Compound | growth at 10 µM (HCT-15 [1]) | growth at 100 µM (ACHN) | growth at 0.1 µM (BT-549 [2]) | GI50 (PC-3) | TGI (PC-3) | growth at 1 µM (HOP-62) | growth at 0.1 µM (HCT-15 [3]) | growth at 0.1 µM (UACC-257 [5]) | growth at 0.1 µM (OVCAR-4) | growth at 0.1 µM (SNB-19) | GI50 (HCT-15 [6]) | TGI (HCT-15 [6]; read-out: TGI) | TGI (HCT-15 [6]; read-out: pTGI (converted)) | growth at 0.1 µM (OVCAR-8) | growth at 100 µM (HCT-15 [7]) | growth at 0.01 µM (TK-10) | growth at 1 µM (K562) | growth at 0.01 µM (MDA-MB-231) | growth at 1 µM (SF-295) | growth at 100 µM (KM12) | further results |
| --- | --- | --- | --- | --- | --- | --- | --- | --- | --- | --- | --- | --- | --- | --- | --- | --- | --- | --- | --- | --- | --- |
| C#C[C@@]1(O)[C@@H](CO)O[C@@H](n2cc(Br)c3c(N)ncnc32)[C@@H]1O | 3% | 7% | 65 to 84% | 0.0477 to 0.167 µM | 8.7 to 100 µM | 12 to 29% | 45 to 63% | 70 to 93% | 78 to 89% | 6 to 71% | 0.172 to 0.707 µM | > 100 µM | > 100 µM | 28 to 43% | 1 to 4% | 100 to 106% | 7 to 10% | 90 to 104% | 24 to 36% | 2 to 10% | CC50 (PC-3; [12]): > 100 µM; growth at 1 µM (NCI-H23): 7 to 13%; growth at 10 µM (BT-549 [4]): -44%; CC50 (HCT-15 [6]; [13]): > 100 µM; growth at 1 µM (HCT-15 [8]): 4 to 7%; growth at 0.1 µM (RXF 393): 81 to 103%; growth at 10 µM (SF-268): 7 to 11%; growth at 0.01 µM (UACC-62): 93 to 101%; growth at 10 µM (UACC-257 [9]): 37 to 43%; growth at 100 µM (U-251): 4%; GI50 (Hs-578T [10]): 0.307 to 1.35 µM; TGI (Hs-578T [10]): 52.4 to 100 µM; CC50 (Hs-578T [10]): > 100 µM; growth at 0.01 µM (HT-29): 78 to 94%; growth at 0.1 µM (Hs-578T [11]): 92 to 97%; GI50 (CCRF-CEM): 0.14 to 0.285 µM; CC50 (CCRF-CEM): > 100 µM; TGI (CCRF-CEM; read-out: TGI): > 100 µM; TGI (CCRF-CEM; read-out: pTGI): > 100 µM |
| C#C[C@@]1(O)[C@@H](CO)O[C@@H](n2cc(Cl)c3c(N)ncnc32)[C@@H]1O | 1% | 7% | 86 to 90% | 0.173 to 0.211 µM | 3.52 to 4.54 µM | 2 to 10% | 57 to 61% | 79 to 90% | 89 to 95% | 12 to 70% | 0.134 to 0.152 µM | > 100 µM | > 100 µM | 35 to 39% | 1% | 96 to 105% | 7% | 88 to 100% | 13 to 20% | 2 to 6% | CC50 (PC-3; [13]): > 100 µM; CC50 (HCT-15 [6]; [12]): > 100 µM; growth at 1 µM (786-0): 9 to 11%; growth at 1 µM (HCT-15 [8]): 1%; growth at 0.1 µM (RXF 393): 105 to 110%; growth at 10 µM (SF-268): 2 to 7%; growth at 0.01 µM (UACC-62): 94 to 97%; growth at 10 µM (UACC-257 [9]): 34 to 42%; growth at 100 µM (U-251): 1%; GI50 (Hs-578T [10]): 0.463 to 2.48 µM; TGI (Hs-578T [10]): 7.01 to 100 µM; CC50 (Hs-578T [10]): > 100 µM; growth at 0.01 µM (HT-29): 83 to 92%; growth at 0.1 µM (Hs-578T [11]): 100 to 107%; GI50 (CCRF-CEM): 0.239 to 0.257 µM; CC50 (CCRF-CEM): > 100 µM; TGI (CCRF-CEM; read-out: TGI): > 100 µM; TGI (CCRF-CEM; read-out: pTGI): > 100 µM |
